Experimental data taken from ChEMBL document CHEMBL1157521, “Discovery of a potent, selective, and less flexible selective norepinephrine reuptake inhibitor (sNRI)” (Bioorg Med Chem Lett, 2008).

Key:
[1] = target: Sodium-dependent dopamine transporter (Homo sapiens, UniProt Q01959); assay: Inhibition of dopamine uptake at human DAT in human HEK293 cells; format: cell-based
[2] = target: Sodium-dependent serotonin transporter (Homo sapiens, UniProt P31645); format: cell-based, HEK293;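 also: blockade of serotonin uptake through human SERT expressed in HEK293 cells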
[3] = target: Sodium-dependent noradrenaline transporter (Homo sapiens, UniProt P23975); assay: Inhibition of norepinephrine uptake at human NET in human HEK293 cells; format: cell-based
[4] = target: Cytochrome P450 2D6 (Homo sapiens, UniProt P10635); assay: Inhibition of CYP2D6; format: ADME
[5] = target: 5-hydroxytryptamine receptor 2B (Homo sapiens) (UniProt P41595); assay: Binding affinity to 5HT2B
5-hydroxytryptamine receptor 2B (Homo sapiens), sequence (P41595 whole entry): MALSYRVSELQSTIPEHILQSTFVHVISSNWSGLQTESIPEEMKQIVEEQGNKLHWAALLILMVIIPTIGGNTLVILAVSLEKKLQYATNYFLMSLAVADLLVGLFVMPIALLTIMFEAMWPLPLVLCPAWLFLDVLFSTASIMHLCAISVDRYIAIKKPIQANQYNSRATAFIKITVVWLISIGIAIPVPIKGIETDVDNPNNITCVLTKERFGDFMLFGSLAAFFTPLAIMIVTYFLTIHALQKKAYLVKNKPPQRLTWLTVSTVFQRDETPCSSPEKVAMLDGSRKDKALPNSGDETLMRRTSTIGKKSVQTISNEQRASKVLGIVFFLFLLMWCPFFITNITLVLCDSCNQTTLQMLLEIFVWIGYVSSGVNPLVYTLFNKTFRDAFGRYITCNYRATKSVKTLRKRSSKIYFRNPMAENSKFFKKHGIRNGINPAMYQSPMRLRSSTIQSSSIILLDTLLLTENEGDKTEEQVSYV

Sodium-dependent noradrenaline transporter, sequence (P23975 whole entry): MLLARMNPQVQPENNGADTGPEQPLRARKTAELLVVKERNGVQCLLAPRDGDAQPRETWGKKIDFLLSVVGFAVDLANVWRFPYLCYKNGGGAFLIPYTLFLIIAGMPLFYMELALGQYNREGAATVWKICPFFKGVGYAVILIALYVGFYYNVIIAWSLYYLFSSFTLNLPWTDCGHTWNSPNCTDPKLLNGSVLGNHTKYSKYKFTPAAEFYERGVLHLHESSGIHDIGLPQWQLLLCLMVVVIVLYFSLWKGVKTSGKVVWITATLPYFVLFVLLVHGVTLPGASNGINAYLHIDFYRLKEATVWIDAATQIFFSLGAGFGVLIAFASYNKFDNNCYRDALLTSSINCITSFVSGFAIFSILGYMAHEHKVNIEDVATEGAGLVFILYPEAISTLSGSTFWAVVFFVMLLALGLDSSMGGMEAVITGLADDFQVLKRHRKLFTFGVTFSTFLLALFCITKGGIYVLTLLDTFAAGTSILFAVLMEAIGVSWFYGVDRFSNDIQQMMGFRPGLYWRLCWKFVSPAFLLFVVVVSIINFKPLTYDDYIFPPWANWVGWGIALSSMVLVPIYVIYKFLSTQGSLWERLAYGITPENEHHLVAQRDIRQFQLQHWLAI
Sodium-dependent dopamine transporter, sequence (Q01959 whole entry): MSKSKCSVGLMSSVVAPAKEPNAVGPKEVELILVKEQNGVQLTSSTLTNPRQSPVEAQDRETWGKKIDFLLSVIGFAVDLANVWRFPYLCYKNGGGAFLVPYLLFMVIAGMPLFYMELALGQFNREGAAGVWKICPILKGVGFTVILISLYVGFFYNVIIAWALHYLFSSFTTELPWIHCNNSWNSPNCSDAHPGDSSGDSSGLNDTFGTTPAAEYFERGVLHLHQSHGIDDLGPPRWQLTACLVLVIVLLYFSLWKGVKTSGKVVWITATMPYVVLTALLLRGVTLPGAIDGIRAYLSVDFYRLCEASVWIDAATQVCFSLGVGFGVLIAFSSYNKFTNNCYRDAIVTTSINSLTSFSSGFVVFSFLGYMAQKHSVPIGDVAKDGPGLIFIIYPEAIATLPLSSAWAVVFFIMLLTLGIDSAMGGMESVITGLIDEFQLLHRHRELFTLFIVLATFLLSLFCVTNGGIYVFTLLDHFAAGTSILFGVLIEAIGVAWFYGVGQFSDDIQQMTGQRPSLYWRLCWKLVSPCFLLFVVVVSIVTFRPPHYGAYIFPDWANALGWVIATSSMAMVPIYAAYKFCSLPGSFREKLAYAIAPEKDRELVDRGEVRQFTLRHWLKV
Sodium-dependent serotonin transporter, sequence (P31645 whole entry): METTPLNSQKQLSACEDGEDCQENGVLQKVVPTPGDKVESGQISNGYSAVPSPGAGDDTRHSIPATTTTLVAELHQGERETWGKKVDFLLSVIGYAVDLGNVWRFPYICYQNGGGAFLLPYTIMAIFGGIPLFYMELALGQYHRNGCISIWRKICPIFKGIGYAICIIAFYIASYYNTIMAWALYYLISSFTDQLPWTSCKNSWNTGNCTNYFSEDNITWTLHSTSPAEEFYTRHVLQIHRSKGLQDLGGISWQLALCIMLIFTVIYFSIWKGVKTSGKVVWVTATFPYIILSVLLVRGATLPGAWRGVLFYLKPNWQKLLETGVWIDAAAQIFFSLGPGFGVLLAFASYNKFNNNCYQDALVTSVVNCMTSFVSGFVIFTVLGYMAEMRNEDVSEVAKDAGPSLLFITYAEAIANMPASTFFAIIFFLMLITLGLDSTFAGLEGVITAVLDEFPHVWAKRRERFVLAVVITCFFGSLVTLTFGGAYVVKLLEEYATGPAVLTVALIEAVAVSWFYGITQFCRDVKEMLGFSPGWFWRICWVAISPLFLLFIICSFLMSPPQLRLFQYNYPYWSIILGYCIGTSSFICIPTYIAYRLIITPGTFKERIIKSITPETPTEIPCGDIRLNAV
Cytochrome P450 2D6, sequence (P10635 whole entry): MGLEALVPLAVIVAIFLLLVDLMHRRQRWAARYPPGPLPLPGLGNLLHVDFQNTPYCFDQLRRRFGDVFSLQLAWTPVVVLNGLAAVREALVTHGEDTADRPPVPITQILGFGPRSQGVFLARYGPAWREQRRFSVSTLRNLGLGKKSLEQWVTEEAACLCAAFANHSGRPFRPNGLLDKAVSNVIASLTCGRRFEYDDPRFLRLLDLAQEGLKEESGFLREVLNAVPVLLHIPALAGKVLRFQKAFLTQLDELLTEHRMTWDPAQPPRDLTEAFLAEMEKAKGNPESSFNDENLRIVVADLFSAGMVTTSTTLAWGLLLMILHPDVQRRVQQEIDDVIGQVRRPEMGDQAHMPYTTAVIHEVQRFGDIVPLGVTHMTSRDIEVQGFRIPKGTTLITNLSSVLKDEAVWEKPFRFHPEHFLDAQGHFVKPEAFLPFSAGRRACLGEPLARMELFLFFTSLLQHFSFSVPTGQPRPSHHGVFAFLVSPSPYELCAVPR

Structure (SMILES) | IC50 [1] [µM] | IC50 [2] [µM] | IC50 [3] [µM] | IC50 [4] [µM] | Activity [5] [nM]
CCN[C@@H]1C[C@H](Oc2ccccc2C)c2ccccc21 (relative stereo) | 2.5 | 8 | 3 | – | –
Cc1ccccc1O[C@H]1C[C@H](N)c2ccccc21 (relative stereo) | 0.6 | 10 | 0.84 | – | –
N[C@@H]1C[C@H](Oc2ccccc2)c2ccccc21 (relative stereo) | 2 | > 10 | 5 | – | –
Cc1ccccc1O[C@H]1C[C@@H](N(C)C)c2ccccc21 (relative stereo) | 10 | 0.3 | 0.15 | – | –
CN[C@@H]1CC[C@H](Oc2ccccc2C)c2ccccc21 (relative stereo) | 1 | 5 | 0.52 | – | –
Cc1ccccc1O[C@@H]1CC[C@@H](N)c2ccccc21 (relative stereo) | 1 | > 10 | 0.95 | – | –
CN[C@@H]1Cc2ccccc2[C@H](Oc2ccccc2C)C1 | > 10 | 3 | 0.19 | – | –
CNCCC(Oc1ccccc1OC)c1ccccc1 (stereo not given) [NISOXETINE] | – | 1.4 | – | – | –
CN[C@@H]1Cc2ccccc2[C@@H](Oc2ccccc2C)C1 | 4.5 | 3.3 | 0.2 | – | –
CN[C@H]1C[C@H](Oc2ccccc2C)c2ccccc21 (relative stereo) | 0.18 | 0.37 | 0.072 | – | –
CN[C@H]1Cc2ccccc2[C@H](Oc2ccccc2C)C1 | 8 | 0.59 | 0.008 | 0.25 | 250
CN[C@H]1Cc2ccccc2[C@@H](Oc2ccccc2C)C1 | 6 | 1.1 | 0.16 | – | –
CN[C@@H]1C[C@H](Oc2ccccc2C)c2ccccc21 (relative stereo) | 4.6 | 1.4 | 0.66 | – | –
CCN(CC)[C@@H]1C[C@H](Oc2ccccc2C)c2ccccc21 (relative stereo) | 2.5 | 3 | 2 | – | –
N[C@@H]1C[C@H](Oc2ccc(Cl)cc2)c2ccccc21 (relative stereo) | 2.4 | 9 | 4 | – | –
Cc1ccccc1O[C@@H]1C[C@@H](N(C)C)Cc2ccccc21 | > 10 | 0.7 | 0.43 | – | –
COc1ccc(O[C@H]2C[C@@H](N(C)C)c3ccccc32)cc1 | > 10 | 0.13 | 6 | – | –
COc1ccccc1O[C@H]1C[C@@H](N(C)C)c2ccccc21 (relative stereo) | > 10 | 3.5 | 3 | – | –
Cc1ccccc1O[C@H]1C[C@@H](N(C)C(C)C)c2ccccc21 (relative stereo) | > 10 | > 10 | 1.1 | – | –
CN(C)[C@@H]1C[C@H](Oc2ccc(Cl)cc2)c2ccccc21 (relative stereo) | 7 | 0.05 | 1.6 | – | –
Cc1ccccc1O[C@H]1CC[C@@H](N)c2ccccc21 (relative stereo) | 1 | 2.3 | 0.63 | – | –
CN[C@@H]1C[C@H](Oc2ccc(Cl)cc2)c2ccccc21 (relative stereo) | 4 | 0.32 | 4 | – | –
CN(C)[C@@H]1C[C@H](Oc2ccccc2)c2ccccc21 (relative stereo) | > 10 | 2 | 0.8 | – | –
CN[C@@H]1C[C@H](Oc2ccccc2)c2ccccc21 (relative stereo) | 5 | > 10 | 2 | – | –
Cc1ccccc1O[C@H]1C[C@H](N(C)C)c2ccccc21 | 3.4 | 0.15 | 0.15 | – | –
